Measured values as given in US5955462A, “Anti-neurogenic inflammatory compounds and compositions and methods of use thereof” (Harbor Branch Oceanographic Institution, Inc., priority 1997, dated 1999).
Values joined by “and” are separate entries in the source; they are usually repeats but may differ in a detail not shown here. Equal values may be shown once.

Legend:
mouse ear [1] = experiment: Inhibition of resiniferatoxin (RTX)-induced edema in a mouse ear model; assay type: in vivo; conditions: for ED50 for inhibition of RTX-induced edema: dose response curve
Procedure: A. Inhibition of Capsaicin-Induced Inflammation (Edema) of the Mouse Ear. Induction of mouse ear edema was based on known methods. Inoue, H., Nagata, N., and Koshihara, Y. (1993). Profile of capsaicin-induced mouse ear oedema as neurogenic inflammatory model: comparison with arachidonic acid-induced ear oedema. Br. J. Pharm 110:1614-20. […] CAP alone (250 μg/ear) or in combination with various dilutions of test compound are applied to both sides of the left ears (5 mice per treatment group) and acetone is applied to all right ears. After a 30 minute incubation, the mice are sacrificed, the ears removed, and bores taken and weighed. Edema is measured by subtracting the weight of the right ear (acetone control) from the weight of the left ear (treated).
B. Inhibition of Resiniferatoxin (RTX)-induced edema in a mouse ear model. Topsentin was also tested for its inhibitory activity against inflammation induced by the neurogenic inflammation producing compound, resiniferatoxin (RTX). Using a mouse ear model, the experimental procedure is substantially the same as that described for the capsaicin-induced inflammation assay (see section A of this Example, above).

mouse ear [2] = experiment: Inhibition of capsaicin-induced inflammation (edema) of the mouse ear; assay type: in vivo; conditions: for potency in inhibiting neurogenic inflammation compared with capsazepine: capsaicin-induced edema in mouse ears
Description: The assay employing mice (e.g., administration to the ear of the mouse) is routinely used by those skilled in the art and is accepted as indicative of anti-inflammatory activity in humans. This assay is described below.
A. Inhibition of Capsaicin-Induced Inflammation (Edema) of the Mouse Ear. Induction of mouse ear edema was based on known methods. Inoue, H., Nagata, N., and Koshihara, Y. (1993). Profile of capsaicin-induced mouse ear oedema as neurogenic inflammatory model: comparison with arachidonic acid-induced ear oedema. Br. J. Pharm 110:1614-20. Compounds to be tested for anti-neurogenic inflammatory activity are topically applied in acetone to the ears of mice in a solution that includes the edema-causing irritant, capsaicin (CAP). CAP alone (250 μg/ear) or in combination with various dilutions of test compound are applied to both sides of the left ears (5 mice per treatment group) and acetone is applied to all right ears. After a 30 minute incubation, the mice are sacrificed, the ears removed, and bores taken and weighed. Edema is measured by subtracting the weight of the right ear (acetone control) from the weight of the left ear (treated). Results are recorded as % decrease (inhibition) or % increase (potentiation) in edema relative to the control group edema.

[3] = Mus musculus, topical, 3.12 μg/ear, read-out: % Inh. of Edema
[4] = Mus musculus, topical, 6.25 μg/ear, read-out: % Inh. of Edema
[5] = Mus musculus, topical, 12.5 μg/ear, read-out: % Inh. of Edema
[6] = Mus musculus, topical, 25 μg/ear, read-out: % Inh. of Edema
[7] = Mus musculus, topical, 50 μg/ear, read-out: % Inh. of Edema
[8] = 3.12 μg/ear, listed as hamacanthin b
[9] = 50 μg/ear, listed as hamacanthin b

Compound | Mean difference (mouse ear [1]; 3.12 μg/ear) | Mean difference (mouse ear [1]; 6.25 μg/ear) | Mean difference (mouse ear [1]; 12.5 μg/ear) | Mean difference (mouse ear [1]; 25 μg/ear) | inhibition of RTX-induced edema in certain animals (mouse ear [1]; 50 μg on the ear) | Mean difference (mouse ear [1]; 50 μg/ear) | inhibition in vivo at 25 µg/ear (mouse ear [1]; [6]) | inhibition in vivo at 50 µg/ear (mouse ear [1]; [7]) | ED50 for inhibition of RTX-induced edema (mouse ear [1]) | also measured
Brc1ccc2c(-c3c[nH]c(-c4c[nH]c5ccccc45)n3)c[nH]c2c1 [Nortopsentin C] | 9.3 mg | 5.4 mg | 1.3 mg | 1.0 mg | ~100% | 0.2 mg | 90.2% | ~98% | about 8 μg/ear | inhibition in vivo at 3.12 µg/ear (mouse ear [1]; [3]): 5.9%; inhibition in vivo at 6.25 µg/ear (mouse ear [1]; [4]): 45%; inhibition in vivo at 12.5 µg/ear (mouse ear [1]; [5]): 86.8%
CC(c1c[nH]c(N)n1)c1ccc(O)c2[nH]cc(-c3cnc(-c4c[nH]c5cc(Br)ccc45)c(=O)[nH]3)c12 (centres unmarked) [Dragmacidin d, Dragmacidin-d] |  |  |  |  |  | 1.4 mg |  | 89.6% |  | 
Brc1ccc2c(-c3nc(-c4c[nH]c5ccccc45)c[nH]3)c[nH]c2c1 [Nortopsentin B] |  |  |  |  |  | 0.9 mg |  | 91.2% |  | 
Brc1ccc2c(-c3c[nH]c(-c4c[nH]c5cc(Br)ccc45)n3)c[nH]c2c1 [Nortopsentin A] |  |  |  |  |  | -0.4 mg |  | 100% |  | 
O=C(c1nc(-c2c[nH]c3ccccc23)c[nH]1)c1c[nH]c2cc(O)ccc12 [Topsentin] |  |  |  | 8.3 mg |  | 2.6 mg | 41% | 82% | about 20 μg/ear | % Inhibition of capsaicin-induced edema (mouse ear [2]; 100 μg/ear): 28%; Inflammation (mg) ± SEM (mouse ear [2]; 100 μg/ear topical, capsaicin 250 μg/ear): 4.8 ± 1.0 mg; % Inhibition of capsaicin-induced edema (mouse ear [2]; 100 μg/ear, listed as topsentin): more than 25%; % Inhibition of capsaicin-induced edema (mouse ear [2]; 250 μg/ear): 66%; % Inhibition of capsaicin-induced edema (mouse ear [2]; 500 μg/ear): 74%; % Inhibition of capsaicin-induced edema (mouse ear [2]; 1000 μg/ear): 90%; potency in inhibiting neurogenic inflammation compared with capsazepine (mouse ear [2]): greater potency in inhibiting neurogenic inflammation than capsazepine; ED50 in inhibition of capsaicin-induced inflammation (mouse ear [2]; dose-response curve, FIG. 1): about 200 μg/ear; percent inhibition of edema (up to) (mouse ear [2]; final concentration of about 1000 μM): approximately 90%; Mean difference (mouse ear [1]; 5 μg/ear): 12.3 mg; Mean difference (mouse ear [1]; 10 μg/ear): 9.6 mg; inhibition of RTX-induced edema in certain animals (mouse ear [1]; 100 μg on the ear): about 100%; Mean difference (mouse ear [1]; 100 μg/ear): 1.3 mg; inhibition in vivo at 5 µg/ear (mouse ear [1]; Mus musculus, topical, 5 μg/ear, read-out: % Inh. of Edema): ~12%; inhibition in vivo at 10 µg/ear (mouse ear [1]; Mus musculus, topical, 10 μg/ear, read-out: % Inh. of Edema): 31%; inhibition in vivo at 100 µg/ear (mouse ear [1]; Mus musculus, topical, 100 μg/ear, read-out: % Inh. of Edema): ~91%
O=C1NC[C@H](c2c[nH]c3cc(Br)ccc23)N=C1c1c[nH]c2cc(Br)ccc12 [Hamacanthin B] | 3.9 mg | 6.7 mg | 4.9 mg | 2.3 mg | ~100% | 0.4 mg |  |  | about 1.5 μg/ear | % Inh. of Edema (mouse ear [1]; 3.12 μg/ear, listed as Hamacanthin b): 68%; % Inh. of Edema (mouse ear [1]; [8]): 68.8%; Difference (mg), left minus right ear, individual animal (mouse ear [1]; [8]): 4.4 mg and 6.9 mg and 1.5 mg and 1.2 mg and 5.3 mg; % Inh. of Edema (mouse ear [1]; 6.25 μg/ear): 46.0%; Difference (mg), left minus right ear, individual animal (mouse ear [1]; 6.25 μg/ear): 6.9 mg and 7.4 mg and 7.0 mg and 8.4 mg and 5.4 mg; % Inh. of Edema (mouse ear [1]; 12.5 μg/ear): 86.8%; Difference (mg), left minus right ear, individual animal (mouse ear [1]; 12.5 μg/ear): 4.6 mg and 4.1 mg and 6.1 mg and 8.3 mg and 1.4 mg; % Inh. of Edema (mouse ear [1]; 25 μg/ear): 81.6%; Difference (mg), left minus right ear, individual animal (mouse ear [1]; 25 μg/ear): 2.3 mg and 4.2 mg and 2.0 mg and 1.0 mg and 1.9 mg; % Inh. of Edema (mouse ear [1]; 50 μg/ear, listed as Hamacanthin b): about 97%; % Inh. of Edema (mouse ear [1]; [9]): 96.9%; Difference (mg), left minus right ear, individual animal (mouse ear [1]; [9]): 0.2 mg and 0.0 mg and 1.4 mg and 0.1 mg
Oc1cc2c(cc1O)CN(C(=S)NCCc1ccc(Cl)cc1)CCC2 [Capsazepine, reference compound] |  |  |  |  |  |  |  |  |  | % Inhibition of capsaicin-induced edema (mouse ear [2]; 500 μg/ear): 33%; % Inhibition of capsaicin-induced edema (mouse ear [2]; 1000 μg/ear): 52%; % Inhibition of capsaicin-induced edema (mouse ear [2]; 1500 μg/ear): 76%
O=C(c1nc(-c2c[nH]c3cc(Br)ccc23)c[nH]1)c1c[nH]c2cc(O)ccc12 [Bromotopsentin] |  |  |  |  |  |  |  |  |  | % Inhibition of capsaicin-induced edema (mouse ear [2]; 500 μg/ear): 79%; potency in inhibiting neurogenic inflammation compared with capsazepine (mouse ear [2]): greater potency in inhibiting neurogenic inflammation than capsazepine
NCC(c1c[nH]c2cc(Br)ccc12)c1c[nH]c2cc(Br)ccc12 [2,2-bis(6-bromoindol-3-yl)ethyl amine] | 11.9 mg | 13.2 mg | 5.8 mg | 2.1 mg | ~100% | 0.1 mg | 81.5% | ~99% | about 18.1 μg/ear | inhibition in vivo at 3.12 µg/ear (mouse ear [1]; [3]): 6.8%; inhibition in vivo at 6.25 µg/ear (mouse ear [1]; [4]): 18%; inhibition in vivo at 12.5 µg/ear (mouse ear [1]; [5]): 86.8%
CS(=O)(=O)Oc1ccc2c(C(=O)c3nc(-c4c[nH]c5cc(Br)ccc45)c[nH]3)c[nH]c2c1 [o-mesylbromotopsentin, bromotopsentin-O-mesylate] | 9.2 mg | 7.2 mg | 8.3 mg | 2.3 mg | 70% | 3 mg | 77.6% | 70.3% | about 17 μg/ear | inhibition in vivo at 3.12 µg/ear (mouse ear [1]; [3]): 8.9%; inhibition in vivo at 6.25 µg/ear (mouse ear [1]; [4]): 28%; inhibition in vivo at 12.5 µg/ear (mouse ear [1]; [5]): 86.8%
O=C(C1=NC(c2c[nH]c3cc(Br)ccc23)CN1)c1c[nH]c2ccccc12 (centres unmarked) [4,5-dihydro-6"-deoxybromotopsentin] |  |  |  |  |  | 3.3 mg |  | 87.1% |  | 
